Laboratory results taken from patent US20200268768A1, “CENICRIVIROC COMBINATION THERAPY FOR THE TREATMENT OF FIBROSIS” (Tobira Therapeutics, Inc., priority 2015, published 2020).

Key:
[1] = test system: mouse UUO model of renal fibrosis; experiment: Mouse unilateral ureter occlusion (UUO) model of renal fibrosis; type: in vivo, CD-1 mice; details: for Reduction of UUO-induced increase in composite Collagen Volume Fraction (CVF): ±SEM
Protocol: Test animals were allocated to weight-matched treatment groups on the day prior to the surgical procedure (Day −1). Male CD-1 mice (N=51; age, 7-8 weeks) underwent either sham surgery or total ligation of the right ureter, i.e. UUO, via aseptic laparotomy (FIG. 5). […] Another group received the anti-transforming growth factor TGF-β1 antibody, compound 1D11 (positive control) at 3 mg/kg/day from Days −1 to 4, injected intraperitoneally once daily, and vehicle control from Days 0 to 5. […] On Day 5, animals were anaesthetised, blood and tissues were collected prior to sacrifice.
Study endpoints included: a) body and kidney weights; b) fibrosis in obstructed kidney evaluated via histological quantitative image analysis of picrosirius red staining (ten images/depth/kidney obtained and assessed in a blinded fashion using light microscopy [at 200×] to enable sampling of 60-70% of the renal cortical area) and quantified by a composite Collagen Volume Fraction (CVF [% total area imaged]) score expressed as the average positive stain across three anatomically distinct (200-250 μM apart) tissue sections, or depths, from the obstructed kidney; c) hydroxyproline content of frozen renal cortical tissue biopsies as assessed by biochemical analyses; d) mRNA expression of profibrotic and inflammatory biomarkers (including MCP-1, Collagen 1a1, Collagen 3α1, TGF-β31, Fibronectin-1, α-smooth muscle actin (α-SMA) and connective tissue growth factor-1 (CTGF-1); assessed via Luminex® (Life Technologies™, Carlsbad, Calif., USA) assay with relative expression normalised to HPRT (hypoxanthine phosphoribosyltransferase).
Data are expressed as mean±standard error of mean (SEM). Statistical analyses were performed using GraphPad Prism® (GraphPad Software, Inc., San Diego, Calif., USA). Treatment differences between sham-surgery+vehiclecontrol and UUO+vehicle-control groups, and between UUO+vehicle-control and UUO+compound-1D11 (positive control) groups, were analysed by unpaired t-Test. Treatment differences between UUO+vehicle-control and CVC-dose groups were analysed by one-way ANOVA (analysis of variance) with Dunnett's test (post-hoc).

[2] = test system: HIV-1 infected adult subjects; experiment: Study 202 biomarkers of inflammation; type: in vivo, human
Protocol: As an exploratory analysis, levels of inflammation biomarkers MCP-1, sCD14, high sensitivity C-reactive protein [hs-CRP], interleukin-6 [IL-6], D-dimer, and fibrinogen) were measured. Baseline values and changes from baseline at Week 24 and Week 48 of MCP-1, sCD14, hs-CRP, IL-6, D-dimer, and fibrinogen are summarized in Table 22.
The sCD14 samples were originally analyzed in 2 separate batches: Batch 1 included samples leading up to the Week 24 primary analysis and Batch 2 included Week 32 and Week 48 (end of study) samples. A repeat analysis of archived samples all analyzed in one batch was conducted for consistency in analysis across time points. To control for the effects of covariates, a linear mixed-model repeated-measures analysis was conducted on the changes from baseline in sCD14 (analysis dated September 2013).

[3] = CVC 7 and 20 mg/kg/day, compound 1D11 3 mg/kg/day, versus UUO+vehicle-control

Compound: CCCCOCCOc1ccc(-c2ccc3c(c2)C=C(C(=O)Nc2ccc([S@@+]([O-])Cc4cncn4CCC)cc2)CCCN3CC(C)C)cc1 [CVC, (S)-8-[4-(2-Butoxyethoxy)phenyl]-1-isobutyl-N-(4-{[(1-propyl-1H-imidazol-5-yl)methyl]sulfinyl}phenyl)-1,2,3,4-tetrahydro-1-benzazocine-5-carboxamide]
- Reduction of UUO-induced increase in composite Collagen Volume Fraction (CVF) ([1]; CVC 7 mg/kg/day oral, Day 5): 28.6±8.8%
- Reduction of UUO-induced increase in composite Collagen Volume Fraction (CVF) ([1]; CVC 20 mg/kg/day oral, Day 5, one outlier excluded): 31.8±6.8%
- Tolerability after UUO surgery ([1]; CVC 100 mg/kg/day group (N=9)): terminated early due to moribundity
- Effect on obstructed kidney hydroxyproline content ([1]; CVC 7 and 20 mg/kg/day, Day 5): Neither dose of CVC tested affected UUO-induced increases in obstructed kidney hydroxyproline content
- Collagen 1a1, Collagen 3α1, TGF-β1 and Fibronectin-1 mRNA expression in obstructed kidney [1, 3]: these reductions, compared with the UUO+vehicle-control group, did not reach statistical significance
- Obstructed kidney cortical MCP-1, α-SMA and CTGF-1 mRNA expression [1, 3]: did not have significant effects
- Effect on body weight relative to UUO+vehicle-control ([1]; Day 5, CVC 7 mg/kg/day oral, compound 1D11 3 mg/kg/day i.p.): no effect on body weight
- Decrease in body weight relative to UUO+vehicle-control ([1]; Day 5, CVC 20 mg/kg/day oral): 5%
- Obstructed or contralateral kidney weight or kidney weight index versus UUO+vehicle-control ([1]; Day 5, CVC 7 and 20 mg/kg/day, compound 1D11 3 mg/kg/day): No significant treatment effects
- sCD14 (original values) change from baseline, mean ([2]; CVC 100 mg, Week 12): -140000 pg/mL
- sCD14 (original values) change from baseline, median ([2]; CVC 100 mg, Week 12): -160000 pg/mL
- D-dimer change from baseline, mean ([2]; CVC 100 mg, Week 24): -32 ng/mL
- D-dimer change from baseline, median ([2]; CVC 100 mg, Week 24): -1.0 ng/mL
- Fibrinogen change from baseline, mean ([2]; CVC 100 mg, Week 24): -3 mg/dL
- Fibrinogen change from baseline, median ([2]; CVC 100 mg, Week 24): -14 mg/dL
- IL-6 change from baseline, mean ([2]; CVC 100 mg, Week 24): 0.42 pg/mL
- IL-6 change from baseline, median ([2]; CVC 100 mg, Week 24): 0.00 pg/mL
- MCP-1 change from baseline, mean ([2]; CVC 100 mg, Week 24): 493 pg/mL
- MCP-1 change from baseline, median ([2]; CVC 100 mg, Week 24): 429 pg/mL
- hs-CRP change from baseline, mean ([2]; CVC 100 mg, Week 24): -0.16 mg/dL
- hs-CRP change from baseline, median ([2]; CVC 100 mg, Week 24): -0.03 mg/dL
- sCD14 (original values) change from baseline, mean ([2]; CVC 100 mg, Week 24): -190000 pg/mL
- sCD14 (original values) change from baseline, median ([2]; CVC 100 mg, Week 24): -180000 pg/mL
- sCD14 (original values) change from baseline, mean ([2]; CVC 100 mg, Week 32): 110000 pg/mL
- sCD14 (original values) change from baseline, median ([2]; CVC 100 mg, Week 32): 120000 pg/mL
- D-dimer change from baseline, mean ([2]; CVC 100 mg, Week 48): -41 ng/mL
- D-dimer change from baseline, median ([2]; CVC 100 mg, Week 48): -1.0 ng/mL
- Fibrinogen change from baseline, mean ([2]; CVC 100 mg, Week 48): 11 mg/dL
- Fibrinogen change from baseline, median ([2]; CVC 100 mg, Week 48): 15 mg/dL
- IL-6 change from baseline, mean ([2]; CVC 100 mg, Week 48): 0.29 pg/mL
- IL-6 change from baseline, median ([2]; CVC 100 mg, Week 48): 0.00 pg/mL
- MCP-1 change from baseline, mean ([2]; CVC 100 mg, Week 48): 636 pg/mL
- MCP-1 change from baseline, median ([2]; CVC 100 mg, Week 48): 523 pg/mL
- hs-CRP change from baseline, mean ([2]; CVC 100 mg, Week 48): -0.08 mg/dL
- hs-CRP change from baseline, median ([2]; CVC 100 mg, Week 48): -0.01 mg/dL
- sCD14 (original values) change from baseline, mean ([2]; CVC 100 mg, Week 48): 100000 pg/mL
- sCD14 (original values) change from baseline, median ([2]; CVC 100 mg, Week 48): 100000 pg/mL
- sCD14 (original values) change from baseline, mean ([2]; CVC 200 mg, Week 12): -230000 pg/mL
- sCD14 (original values) change from baseline, median ([2]; CVC 200 mg, Week 12): -210000 pg/mL
- D-dimer change from baseline, mean ([2]; CVC 200 mg, Week 24): -64 ng/mL
- D-dimer change from baseline, median ([2]; CVC 200 mg, Week 24): -50 ng/mL
- Fibrinogen change from baseline, mean ([2]; CVC 200 mg, Week 24): -7 mg/dL
- Fibrinogen change from baseline, median ([2]; CVC 200 mg, Week 24): -8 mg/dL
- IL-6 change from baseline, mean ([2]; CVC 200 mg, Week 24): 0.81 pg/mL
- IL-6 change from baseline, median ([2]; CVC 200 mg, Week 24): 0.00 pg/mL
- MCP-1 change from baseline, mean ([2]; CVC 200 mg, Week 24): 753 pg/mL
- MCP-1 change from baseline, median ([2]; CVC 200 mg, Week 24): 695 pg/mL
- hs-CRP change from baseline, mean ([2]; CVC 200 mg, Week 24): -0.04 mg/dL
- hs-CRP change from baseline, median ([2]; CVC 200 mg, Week 24): -0.04 mg/dL
- sCD14 (original values) change from baseline, mean ([2]; CVC 200 mg, Week 24): -230000 pg/mL
- sCD14 (original values) change from baseline, median ([2]; CVC 200 mg, Week 24): -190000 pg/mL
- sCD14 (original values) change from baseline, mean ([2]; CVC 200 mg, Week 32): 20000 pg/mL
- sCD14 (original values) change from baseline, median ([2]; CVC 200 mg, Week 32): -20000 pg/mL
- D-dimer change from baseline, mean ([2]; CVC 200 mg, Week 48): -70 ng/mL
- D-dimer change from baseline, median ([2]; CVC 200 mg, Week 48): -50 ng/mL
- Fibrinogen change from baseline, mean ([2]; CVC 200 mg, Week 48): -10 mg/dL
- Fibrinogen change from baseline, median ([2]; CVC 200 mg, Week 48): -13 mg/dL
- IL-6 change from baseline, mean ([2]; CVC 200 mg, Week 48): -0.04 pg/mL
- IL-6 change from baseline, median ([2]; CVC 200 mg, Week 48): 0.00 pg/mL
- MCP-1 change from baseline, mean ([2]; CVC 200 mg, Week 48): 900 pg/mL
- MCP-1 change from baseline, median ([2]; CVC 200 mg, Week 48): 756 pg/mL
- hs-CRP change from baseline, mean ([2]; CVC 200 mg, Week 48): -0.18 mg/dL
- hs-CRP change from baseline, median ([2]; CVC 200 mg, Week 48): -0.04 mg/dL
- sCD14 (original values) change from baseline, mean ([2]; CVC 200 mg, Week 48): -40000 pg/mL
- sCD14 (original values) change from baseline, median ([2]; CVC 200 mg, Week 48): -40000 pg/mL
